Structures can show the parent of a compound that is named as a salt.
biological target: T1, recombinant full-length WRN protein (1-1432) (Homo sapiens, UniProt Q14191); assay: WRN unwinding activity, fluorogenic 384-well assay (Example A); format: biochemical; conditions: 4 hr UNW pIC50, WRN unwinding activity, Table 2
T1 construct: recombinant full-length WRN protein (1-1432)
Experimental: Functional WRN unwinding activity can be measured using a fluorogenic plate based 384 well assay configured to measure the separation of labeled double stranded DNA substrate. Compounds were dosed out in neat DMSO with a 1:3 serial dilution scheme. 100 nL of compound was stamped into Greiner low volume black assay plates (Greiner Cat #784076) using the Echo Acoustic Dispenser to generate assay ready plates. All solutions were prepared in assay buffer (25 mM TRIS (pH8.0), 5 mM NaCl, 2 mM MgCl2, 1 mM DTT, 0.05% BSA) for this 10 μL low volume reaction. To prepare the solutions, a 2×WRN Enzyme cocktail was made containing 200 pM of recombinant full-length WRN protein (1-1432). A 2× Substrate cocktail was made to consist of both 200 μM ATP (any ultrapure ATP sample) and 12 nM of the fluorescent quenched labeled double stranded DNA oligomer (IDT Custom synthesis; 5′-5IABkFQ (SEQ ID NO. 1)/GCACTGGCCGTCGTTTTACGGTCGTGACT-3′ (SEQ ID NO. 2): 5′-TTTTTTACTTAACGACGGCCAGTGC (SEQ ID NO. 3)/36-TAMTSP/-3′ (SEQ ID NO. 4)). To start the reaction, 5 μL of assay buffer was added to a single column to serve as the low control. Following this, 5 μL of 2×WRN Enzyme was added in all wells except the buffer low control wells. The reaction plate was covered and incubated at ambient temperature for 4 hours to allow for time dependent inhibition if it existed. After 4 hours, the addition of 5 μL of 2×-ATP/DNA substrate cocktail was added across all wells of the assay plate. This initiated the reaction, as the plate was incubated at ambient temperature for 60 minutes for the unwinding reaction to occur. A 10 mM EDTA solution was prepared and added at 5 μL across the entire plate after 60 minutes to quench the samples for an endpoint measurement. Fluorescent intensity was measured using excitation and emission wavelengths of 525 nm and 598 nm, respectively. High florescent intensity (DMSO with buffer) represents full inhibition of unwinding activity and low florescent intensity (DMSO with enzyme) represents no inhibition of unwinding activity. The potency of the compounds was determined using a four-parameter inhibition model to generate pIC50, Hill Slope, maximum inhibition (see Table 2).

T1 sequence (Q14191 whole entry): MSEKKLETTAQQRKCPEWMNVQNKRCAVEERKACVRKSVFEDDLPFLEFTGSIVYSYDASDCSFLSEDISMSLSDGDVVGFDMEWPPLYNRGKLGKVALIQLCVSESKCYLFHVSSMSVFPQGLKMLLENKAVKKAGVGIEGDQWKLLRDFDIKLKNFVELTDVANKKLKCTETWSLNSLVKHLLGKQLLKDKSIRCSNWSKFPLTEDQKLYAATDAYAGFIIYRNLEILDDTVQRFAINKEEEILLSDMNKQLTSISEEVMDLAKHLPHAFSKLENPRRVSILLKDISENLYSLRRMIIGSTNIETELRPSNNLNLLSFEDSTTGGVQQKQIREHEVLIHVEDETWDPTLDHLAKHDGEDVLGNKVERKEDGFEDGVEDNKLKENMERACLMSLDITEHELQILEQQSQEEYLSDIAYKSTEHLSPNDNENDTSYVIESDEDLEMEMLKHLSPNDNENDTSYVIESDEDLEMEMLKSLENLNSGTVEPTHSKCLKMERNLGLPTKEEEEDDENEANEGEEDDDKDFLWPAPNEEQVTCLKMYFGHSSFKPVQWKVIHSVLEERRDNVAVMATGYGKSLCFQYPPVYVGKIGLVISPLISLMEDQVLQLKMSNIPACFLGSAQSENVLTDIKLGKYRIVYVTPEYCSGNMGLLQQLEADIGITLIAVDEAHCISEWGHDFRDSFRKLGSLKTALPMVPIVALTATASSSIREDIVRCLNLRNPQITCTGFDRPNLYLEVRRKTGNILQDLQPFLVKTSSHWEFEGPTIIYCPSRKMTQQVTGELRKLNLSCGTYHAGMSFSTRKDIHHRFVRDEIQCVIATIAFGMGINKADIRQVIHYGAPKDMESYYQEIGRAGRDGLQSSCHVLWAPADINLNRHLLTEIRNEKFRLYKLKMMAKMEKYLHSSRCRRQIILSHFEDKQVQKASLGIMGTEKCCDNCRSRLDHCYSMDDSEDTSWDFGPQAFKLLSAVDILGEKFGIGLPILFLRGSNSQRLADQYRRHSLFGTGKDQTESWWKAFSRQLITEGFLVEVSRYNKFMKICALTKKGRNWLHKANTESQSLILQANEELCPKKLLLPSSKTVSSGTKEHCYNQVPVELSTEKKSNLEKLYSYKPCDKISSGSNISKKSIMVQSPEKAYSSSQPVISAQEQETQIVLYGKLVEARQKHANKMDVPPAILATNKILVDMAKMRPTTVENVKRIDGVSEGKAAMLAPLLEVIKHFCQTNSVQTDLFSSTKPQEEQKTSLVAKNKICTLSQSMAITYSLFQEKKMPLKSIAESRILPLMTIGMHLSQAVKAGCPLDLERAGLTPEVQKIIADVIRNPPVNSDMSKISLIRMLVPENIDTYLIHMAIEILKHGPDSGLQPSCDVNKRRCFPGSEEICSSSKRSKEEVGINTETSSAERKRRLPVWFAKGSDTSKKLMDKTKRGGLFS

| SMILES | IC50 [nM] |
| --- | --- |
| CN(c1ccc([C@H]2CCC[C@@H](COc3ccc(C(F)(F)F)cc3)[C@@H]2C(=O)O)cc1)S(=O)(=O)c1cccc([C@H]2CCCNC2)c1 (relative stereo) [Example 213, (1R,2S,6R)-2-(4-((N-methyl-3-((R*)-piperidin-3-yl)phenyl)sulfonamido)phenyl)-6-((4-(trifluoromethyl)phenoxy)methyl)cyclohexane-1-carboxylic acid, formic acid salt] | 39.8 |

same assay, conditions: WRN unwinding activity, 4 hr; Table 2; read-out: 4 hr UNW pIC50 (converted)

| IC50 [nM] | SMILES |
| --- | --- |
| 5010 | O=C(Nc1ccc(C(F)(F)F)cc1)[C@@H]1CCC[C@H](c2ccc(Br)cc2)[C@@]1(F)C(=O)O (racemic) [Example 243, rac-(1R,2S,6R)-2-(4-bromophenyl)-1-fluoro-6-((4-(trifluoromethyl)phenyl)carbamoyl)cyclohexane-1-carboxylic acid] |
| 126 | O=C(O)[C@@H]1[C@@H](c2ccc(C(F)(F)F)cc2CO)CCC[C@H]1C(=O)Nc1ccc(C(F)(F)F)cc1F (racemic) [Example 246, rac-(1R,2R,6S)-2-((2-fluoro-4-(trifluoromethyl)phenyl)carbamoyl)-6-(2-(hydroxymethyl)-4-(trifluoromethyl)phenyl)cyclohexane-1-carboxylic acid] |
| 79.4 | O=C(O)[C@@H]1[C@@H](c2ccc(C(F)(F)F)cc2)CCC[C@H]1C(=O)Nc1ccc(C(F)(F)F)cc1F (racemic) [Example 247, rac-(1R,2R,6S)-2-((2-fluoro-4-(trifluoromethyl)phenyl)carbamoyl)-6-(4-(trifluoromethyl)phenyl)cyclohexane-1-carboxylic acid] |
| 20 | Cc1nc2cc(S(=O)(=O)N(C)c3ccc([C@@H]4CCC[C@H](C(=O)Nc5ccc(C(F)(F)F)cc5F)[C@H]4C(=O)O)cc3C#N)ccc2n1C (relative stereo) [Example 163, rel-(1R,2S,6R)-2-(3-cyano-4-((N,1,2-trimethyl-1H-benzo[d]imidazole)-5-sulfonamido)phenyl)-6-((2-fluoro-4-(trifluoromethyl)phenyl)carbamoyl)cyclohexane-1-carboxyl c acid] |
| 631 | Cc1nc2cc(S(=O)(=O)N(C)c3ccc([C@@H]4C[C@@H](N5CCOCC5)C[C@H](C(=O)Nc5ccc(C(F)(F)F)cc5F)[C@H]4C(=O)O)cc3)ccc2n1C (relative stereo) [Example 339, rel-(1R,2R,4S,6S)-2-((2-fluoro-4-(trifluoromethyl)phenyl)carbamoyl)-4-morpholino-6-(4-((N,1,2-trimethyl-1H-benzo[d]imidazole)-5-sulfonamido)phenyl)cyclohexane-1-carboxylic acid] |
| 7940 | Cc1nc2cc(S(=O)(=O)N(C)c3ccc([C@@H]4C[C@@H](N5CCC(F)(F)CC5)C[C@H](C(=O)Nc5ccc(C(F)(F)F)cc5F)[C@H]4C(=O)O)cc3)ccc2n1C (relative stereo) [Example 341, rel-(1R,2R,4S,6S)-4-(4,4-difluoropiperidin-1-yl)-2-((2-fluoro-4-(trifluoromethyl)phenyl)carbamoyl)-6-(4-((N,1,2-trimethyl-1H-benzo[d]imidazole)-5-sulfonamido)phenyl)cyclohexane-1-carboxylic acid] |
| 12600 | Cc1nc2cc(S(=O)(=O)N(C)c3ccc([C@@H]4C[C@@H](N5CC6(F)CC5C6)C[C@H](C(=O)Nc5ccc(C(F)(F)F)cc5F)[C@H]4C(=O)O)cc3)ccc2n1C (relative stereo) [Example 399, rel-(1R,2R,4S,6S)-2-((2-fluoro-4-(trifluoromethyl)phenyl)carbamoyl)-4-(4-fluoro-2-azabicyclo[2.1.1]hexan-2-yl)-6-(4-((N,1,2-trimethyl-1H-benzo[d]imidazole)-5-sulfonamido)phenyl)cyclohexane-1-carboxylic acid] |
| 251 | Cc1nc2cc(S(=O)(=O)N(C)c3ccc([C@H]4CCC[C@H](C(=O)Nc5ccc(C(C)C)cc5)[C@@H]4C(=O)O)cc3)ccc2n1C (single isomer, unassigned) [Example 74] |
| 251 | CN(c1ccc([C@H]2CCC[C@@H](C(=O)Nc3ccc(C(F)(F)F)cc3F)[C@@H]2C(=O)O)cc1)S(=O)(=O)c1ccc2[nH]cnc2c1 (single isomer, unassigned) [Example 85] |
| 316 | CN(c1ccc([C@H]2CCC[C@@H](C(=O)Nc3ccc(C(F)(F)F)cc3F)[C@@H]2C(=O)O)cc1)S(=O)(=O)c1ccc2c(c1)ncn2C (single isomer, unassigned) [Example 87] |
| 200 | CC(=O)N1CCc2cc(S(=O)(=O)N(C)c3ccc([C@H]4CCC[C@@H](C(=O)Nc5ccc(C(F)(F)F)cc5F)[C@@H]4C(=O)O)cc3)ccc21 (single isomer, unassigned) [Example 89] |
| 50.1 | Cc1nc2cc(S(=O)(=O)N(C)c3ccc([C@H]4C[C@@H](O)C[C@@H](C(=O)Nc5ccc(C(F)(F)F)cc5F)[C@@H]4C(=O)O)cc3)ccc2n1C (single isomer, unassigned) [Example 144] |

Second part, the compound before the results:

| SMILES | IC50 [nM] |
| --- | --- |
| CC#Cc1cc([C@H]2CCC[C@@H](C(=O)Nc3ccc(C(F)(F)F)cc3F)[C@@H]2C(=O)O)ccc1C(F)(F)F (racemic) [Example 240, rac-(1R,2R,6S)-2-((2-fluoro-4-(trifluoromethyl)phenyl)carbamoyl)-6-(3-(prop-1-yn-1-yl)-4-(trifluoromethyl)phenyl)cyclohexane-1-carboxylic acid] | 3980 |
| CCN[C@@H]1CC[C@@H](C(=O)Nc2ccc(C(C)C)cc2)[C@H](C(=O)O)[C@H]1c1ccc(N(C)S(=O)(=O)c2ccc3c(c2)nc(C)n3C)cc1 (racemic) [Example 249, rac-(1R,2S,3R,6R)-3-(ethylamino)-6-((4-isopropylphenyl)carbamoyl)-2-(4-((N,1,2-trimethyl-1H-benzo[d]imidazole)-5-sulfonamido)phenyl)cyclohexane-1-carboxylic acid] | 1.58 |
| Cc1nc2cc(S(=O)(=O)N(C)c3ccc([C@H]4C[C@H](N(C)C)C[C@@H](C(=O)Nc5ccc(C(F)(F)F)cc5F)[C@@H]4C(=O)O)cc3)ccc2n1C (relative stereo) [Example 253, rel-(1R,2R,4S,6S)-4-(dimethylamino)-2-((2-fluoro-4-(trifluoromethyl)phenyl)carbamoyl)-6-(4-((N,1,2-trimethyl-1H-benzo[d]imidazole)-5-sulfonamido)phenyl)cyclohexane-1-carboxylic acid] | 2 |
| Cc1nc2cc(S(=O)(=O)Nc3ccc([C@H]4CCC[C@@H](C(=O)Nc5ccc(C(F)(F)F)cc5F)[C@@H]4C(=O)O)cc3)ccc2[nH]1 (relative stereo) [Example 258, rel-(1R,2R,6S)-2-((2-fluoro-4-(trifluoromethyl)phenyl)carbamoyl)-6-(4-((2-methyl-1H-benzo[d]imidazole)-5-sulfonamido)phenyl)cyclohexane-1-carboxylic acid] | 631 |
| Cc1nc2cc(S(=O)(=O)N(C)c3ccc([C@H]4CNC[C@@H](C(=O)Nc5ccc(C(F)(F)F)cc5F)[C@@H]4C(=O)O)cc3)ccc2n1C (relative stereo) [Example 308, rel-(3R,4S,5R)-3-((2-fluoro-4-(trifluoromethyl)phenyl)carbamoyl)-5-(4-((N,1,2-trimethyl-1H-benzo[d]imidazole)-5-sulfonamido)phenyl)piperidine-4-carboxylic acid] | 1.58 |
| Cc1nc2cc(S(=O)(=O)N(C)c3ccc([C@H]4CCC[C@@H](C(=O)Nc5ccc(C(C)C)cc5)[C@H]4C(=O)O)cc3)ccc2n1C (single isomer, unassigned) [Example 76] | 1260 |
| Cc1nc2cc(S(=O)(=O)N(C)c3ccc([C@H]4CCC[C@@H](C(=O)Nc5ccc(C(C)C)cc5)[C@@H]4C(=O)O)cc3)ccc2n1C (single isomer, unassigned) [Example 79] | 501 |
| Cc1nc2cc(S(=O)(=O)N(C)c3ccc([C@H]4CCC[C@@H](C(=O)Nc5ccc(C(F)(F)F)cc5F)[C@@H]4C(=O)O)cc3)ccc2[nH]1 (single isomer, unassigned) [Example 91] | 126 |
| CCO[C@@H]1C[C@H](C(=O)Nc2ccc(C(F)(F)F)cc2F)[C@@H](C(=O)O)[C@H](c2ccc(N(C)S(=O)(=O)c3ccc4c(c3)nc(C)n4C)cc2)C1 (single isomer, unassigned) [Example 137] | 251 |
| Cc1nc2cc(S(=O)(=O)N(C)c3ccc([C@H]4C[C@@H](O)C[C@@H](C(=O)Nc5ccc(C(F)(F)F)cc5F)[C@H]4C(=O)O)cc3)ccc2n1C (single isomer, unassigned) [Example 142] | 2000 |
| Cc1nc2cc(S(=O)(=O)N(C)c3ccc([C@H]4C[C@@H](O)C[C@@H](C(=O)Nc5ccc(C(F)(F)F)cc5F)[C@H]4C(=O)O)cc3)ccc2n1C (single isomer, unassigned) [Example 143] | 15.8 |
